Test results published in US10662194B2, “Substituted 6-anilino-9-heterocyclylpurine derivatives for inhibition of plant stress” (UNIVERZITA PALACKEHO V OLOMOUCI, priority 2014, dated 2020).
In brackets after ≈: the same amount, converted by molar mass. Marks after values point to notes of the source that are not given here.

How the values were obtained:
[1] = test system: wild-type Arabidopsis plants; assay: In vitro root growth of wild-type Arabidopsis plants; format: in vivo; settings: 0.1 μM in MS medium, FIG. 6
Method: As shown in previous example presence of compound 12 in the growth medium has positive effect on the root growth of cytokinin-deficient Arabidopsis plants. This effect was further studied using wild-type Arabidopsis plants and compared with biologically and structurally relevant compounds, a cytokinin BAP and a CKX inhibitor INCYDE. […] Arabidopsis seedlings were grown in vitro on a standard MS medium containing 0.1 μM cytokinin BAP, the same concentration of compound 12 and the same concentration of CKX inhibitor INCYDE (2-chloro-6-(3-methoxyanilino)purine).

maize (hybrid Amadeo) = assay: Seed coating, shoot and root growth of maize (pot experiment); format: in vivo
Method: The drenching experiments with model plant Arabidopsis pointed to potential application of compound 12 in stimulation of plant growth and development when the roots of the plants are exposed to the chemical. […] In the year 2011 pot experiment was performed with maize (hybrid Amadeo; KWS, FAO 230). The seeds were coated with 10 and 50 μM concentration of compound 12 mixed into seed treatment agent Cruiser OSR (Syngenta; 8 L of solution per 1000 kg of seeds). Seeds coated with only Cruiser OSR were used for control variant. The seeds were dried and then sown into the soil, one plant per 15 L pot (30 plants were used per variant). The plants were harvested after app. one month in stage DC 18 (eight leafs per plant). The shoots and the roots of each plant were separated and dried. The weight of dry shoot and root biomass was recorded. […] The plants, which seeds were coated with the lower concentration of compound 12, formed 2-times higher root dry biomass and 2.75-times higher shoot dry biomass. In total this was reflected by 2.3-times increase of the total plant dry weight.

[2] = test system: winter rapeseed variety Benefit; assay: Seed coating, emergence and freezing tolerance of winter rapeseed (field experiment); format: in vivo; settings: 50 μM seed coating
Method: To evaluate the effect of seed coating with compound 12 on yield forming traits of winter rapeseed field plot experiment was performed in season 2010/2011 on locality Opava, Czech Republic. Seeds of winter rapeseed variety Benefit (Selgen) were coated with 50 μM concentration of compound 12 mixed into the seed coating treatment Cruiser OSR (Syngenta; 15 L of solution per 1000 kg of seeds), seeds coated with only Cruiser OSR were used for control variant. The seeds were dried and then sown in the sowing rate 700.000 seeds per hectare in 4 replications per each variant in randomized positions (each replication was 10 square meter plot). In the experiment plant emergence, freezing tolerance and final seed yield were scored. The frost tolerance was estimated by method described in (Janáček, J., Prášil, I.: Quantification of plant frost injury by nonlinear fitting of an s-shaped function. Cryo-Letters vol. 12, 1991, no. 7, 47-52).

[3] = Calcein AM viability/cytotoxicity assay, BJ; format: cell-based; settings: human, BJ foreskin fibroblasts, FIG. 11, read-out: IC50, concentration reducing number of viable cells to 50%
From the text: Absence of toxic effects against mammalian (especially human) cell lines in a wide concentration range is one of the requirements on compounds intended for use in agriculture and medicine. Because toxic compounds negatively influence metabolic processes in cells, many standard cytotoxicity assays are based on measurement of metabolisation rate of various artificial substrates. Resulting product is then quantified e.g. by means of spectrometry. The assays can be easily modified for use in 96-well plates. For evaluation of cytotoxic effect of compounds of this invention, a microtiter assay based on quantification of metabolisation of Calcein AM was used. The assay is widely used in drug screening programs and in chemosensitivity testing. In live cells, Calcein AM is enzymatically hydrolysed and accumulation of resulting calcein is manifested by green fluorescence. The cytotoxicity of the studied compounds was determined with human fibroblast lines MRC-5 (lung fibroblasts) and BJ (foreskin fibroblasts). […] The fluorescence of the live cells was measured at 485 nm/538 nm (excitation/emission) with a Fluoroskan Ascent microplate reader (Labsystems). […]

human U2OS cells = assay: Induction of DNA breakage, γ-H2AX immunofluorescence; format: cell-based; settings: 100 μM, 24 h, FIG. 13
From the text: (§1) Maintenance of genome integrity is essential for homeostasis and survival as impaired DNA damage response may predispose to grave pathologies such as neurodegenerative and immunodeficiency syndromes, cancer and premature aging (Mistrik et al., 2009). The potential effect of compound 12 on stimulation of DNA breakage was thus further estimated through analysis of phosphorylated histone H2AX (gamma-H2AX) quantified by optimized automated single-cell image analysis (Mistrik et al., 2009). The compound 12 was tested in concentration of 100 μM, the highest concentration accessible due to the compound solubility. Induction of DNA breakage was tested using human U2OS cells. The U2OS cells were cultivated at standard cultivation condition (37° C., 5% CO2). As a positive control, cells were irradiated by roentgen radiation (Baltobloc) (0.5 Gy-2 Gy), one hour later fixed and stained for γ-H2AX, a well established marker of the DNA damage. Parallel samples were treated by compound 12 for 24 hours, fixed and also stained for γ-H2AX. Microscopy analysis followed by computer based signal quantification was performed as described previously (Mistrik et al., 2009).

[4] = Compound solubility limit in the test medium; format: physicochemical; settings: read-out: highest concentration accessible due to the compound solubility
From the text: as §1

[5] = seed coating, lower concentration (10 μM), stage DC 18

COc1cccc(Nc2nc(Cl)nc3c2ncn3C2CCCCO2)c1 (stereo not drawn) [compound 12, 2-chloro-6-(3-methoxyanilino)-9-(tetrahydropyran-2-yl)purine]
root growth [1]: positive effect on the root length and lateral branching | effect on shoot and root dry biomass (maize (hybrid Amadeo); seed coating 10 and 50 μM, FIG. 10): dose-dependent stimulatory effect | increase of the total plant dry weight (maize (hybrid Amadeo); [5]): 2.3 times | root dry biomass, times higher than control (maize (hybrid Amadeo); [5]): 2 times | shoot dry biomass, times higher than control (maize (hybrid Amadeo); [5]): 2.75 times | Estimated frost resistence (atrifical frost test) - Letal Temperature LT50 [2]: −12.3 * | Number of emerged plants per sq meter - autumn (11th October, 2010) [2]: 60.0 per sq meter | Plant height (cm) - autumn (11th October, 2010) [2]: 6.6 cm | Seed yield (% of control) [2]: 103.1 % of control | increase of artificially estimated frost tolerance [2]: ~5% | increase of the final seed yield [2]: 3.1% | more plants emerged in the same time compared to control [2]: ~20% | Leafs weight - autumn (22th October) ([2]; 15 plants): 11.69** | Root lenght (cm) - autumn (22th October) ([2]; 15 plants): 14.63 cm | Seed yield (t/ha) ([2]; mean from 4 plots): 5.98 t/ha | IC50 at 72 h [3]: > 100 µM | DNA damage (γ-H2AX) (human U2OS cells): no effect on DNA damage | solubility [4]: 100 µM (≈ 36 µg/mL)
